# Patent US20090030049A1, “MEDICAMENT FOR GENITAL HERPES” (ASTELLAS PHARMA INC., priority 2005, published 2009)
# “And” between values parts separate entries of the source, which are not always exact repeats. Equal entries are not always repeated.
# System: HSV-2 strain G
# Assay: Therapeutic activity upon guinea pig HSV-2 genital herpes model (vaginal lesion score)
# Format: in vivo
# Conditions: oral, twice a day, dose inhibiting 50% of average vaginal lesion score of placebo group at 9 days after infection, Hartley female guinea pig; for ED50: Human alphaherpesvirus 2, in Cavia porcellus, started after development of vaginal lesions (day 4 to 8 after infection), read-out: Lesion inhibitory activity (ED50; mg/kg) (4 to 8 days of administration after infection); for Comparative test (administration before the development of lesions) (ED50; mg/kg) (0 to 4 days of administration after infection): started 3 hours after HSV-2 infection until 4 days after infection
# Description: In vivo activity of the pharmaceutical composition of the present invention was tested using an HSV-2 infected guinea pig vagina genital herpes model in reference to the method of L. Stanberry et al. (Journal of Infectious Disease, 1982, 146, 397-404). An absorbent cotton swab was impregnated with an HSV-2 virus suspension (HSV-2 strain G 1.25×10^5 PFU/ml) and inserted into the vagina of a Hartley female guinea pig (4 weeks of age) under diethyl ether anesthesia, thereby infecting it with HSV-2. Vagina lesions and general conditions caused by the HSV-2 infection were scored based on the following 6 steps and evaluated every day from the infected day (0 day) to 9 days after the infection.
# Score 1: formation of approximately 1 or 2 small blisters which can be observed with the naked eye
# Score 2: formation of blisters in 10 to 50% per vaginal visible area
# Score 3: formation of blisters in 50 to 100% per vaginal visible area
# Score 4: formation of ulcers in 10 to 50% per vaginal visible area
# Score 5: formation of ulcers in 50 to 100% per vaginal visible area
# Score 6: paralysis of hind legs or death
# Only guinea pigs in which the vaginal lesion score was judged to be 1 or 2 and development of lesions therefore was found were selected after the development of vaginal lesions by HSV-2 infection, namely 4 days after the infection, their grouping was carried out in such a manner that average values of the scores became even, and then administration of each compound to be tested was started. Each compound to be tested was made into a methyl cellulose suspension and orally administered twice a day for 5 days of from the 4th day to 8th day after the infection. Additionally, in order to compare degrees of the therapeutic effect due to difference in the administration starting period, a comparative test was simultaneously carried out in which the administration was started before the development of vaginal lesions (3 hours after the HSV-2 infection) and the administration was carried out in the same manner until 4 days after the infection. Each test was carried out using 10 animals per group of the guinea pigs and using VCV as the comparative compound.
# Regarding the average vaginal lesion score of 9 days after the HSV-2 infection, the dose of each compound to be tested which inhibits 50% of the score of the placebo administration group (ED50 value; mg/kg, twice a day) was calculated, with the results shown in the following table.
SMILES,ED50 [mg/kg],Comparative test (administration before the development of lesions) (ED50; mg/kg) (0 to 4 days of administration after infection)
"Cc1ccc(N(CC(=O)Nc2ccc(-c3cocn3)cc2)C(=O)C2CCS(=O)(=O)CC2)cc1 [Preparation 2, N-(4-methylphenyl)-N-(2-{[4-(1,3-oxazol-4-yl)phenyl]amino}-2-oxoethyl)tetrahydro-2H-thiopyran-4-carboxamide 1,1-dioxide]",3.1,1.3 mg/kg
"Cc1cccc(C)c1N(CC(=O)Nc1ccc(-c2ncon2)cc1)C(=O)C1CCS(=O)(=O)CC1 [Preparation 27, N-(2,6-dimethylphenyl)-N-(2-{[4-(1,2,4-oxadiazol-3-yl)phenyl]amino}-2-oxoethyl)tetrahydro-2H-thiopyran-4-carboxamide 1,1-dioxide]",2.5,1.2 mg/kg
"CC(C)[C@H](N)C(=O)OCCOCn1cnc2c(=O)[nH]c(N)nc21 [VCV, valacyclovir, reference compound]",≥ 300,117 mg/kg and 50 mg/kg
